Where two headings read alike, the source gives them in different places.
Legend:
[1] = tested on: HT-29 cells; assay: Apoptosis (sub-G1) by flow cytometry; format: cell-based, human; settings: 24 h, mean ± SE
Method: (§1) Cell Culture and Chemicals. The COLO 205 and HT 29 cell lines were isolated from human colon adenocarcinoma (ATCC CCL-222 and HTB-38); human promyelocytic leukemia (HL-60) cells were obtained from American Type Culture Collection (Rockville, Md.). The human AGS gastric carcinoma cell lines (CCRC 60102) were obtained from the Food Industry Research and Development Institute (Hsinchu, Taiwan). Cell lines were grown at 37° C. in 5% CO2 dioxide atmosphere in RPMI for COLO 205, HT-29, and HL-60 cells and DMEM/F12 for AGS cells, all supplemented with 10% heat-inactivated fetal bovine serum (GIBCO BRL, Grand Island, N.Y.) (100 units/mL of penicillin, 100 μg/mL of streptomycin), and 2 mM L-glutamine (GIBCO BRL). Selected compounds were dissolved in dimethyl sulfoxide (DMSO). Propidium iodide was obtained from Sigma Chemical Co. (St. Louis, Mo.).
(§2) Flow Cytometry. Human cancer cells (2×10^5) were cultured in 60-mm Petri dishes and incubated for 24 h. The apoptotic cells (sub-G1) in the selected compounds and treated cells were measured by flow cytometry analysis. Then cells were harvested, washed with PBS, resuspended in 200 μL of PBS, and fixed in 800 μL of iced 100% ethanol at −20° C. After being left to stand overnight, the cell pellets were collected by centrifugation, resuspended in 1 mL of hypotonic buffer (0.5% Triton X-100 in PBS and 0.5 μg/mL RNase), and incubated at 37° C. for 30 min. Then 1 mL of propidium iodide solution (50 μg/mL) was added and the mixture was allowed to stand on ice for 30 min. Fluorescence emitted from the propidium iodide-DNA complex was quantitated after excitation of the fluorescent dye by FACScan cytometry (Becton Dickinson, San Jose, Calif.).
(§3) The compounds isolated from Inula were tested for their effects on the apoptotic ratio in human cancer cells.

[2] = tested on: AGS cells; assay: Apoptosis (sub-G1) by flow cytometry; format: cell-based, human; settings: 24 h, mean ± SE
Method: as §1, §2, §3

[3] = tested on: HL-60 cells; assay: Apoptosis (sub-G1) by flow cytometry; format: cell-based, human; settings: 24 h, mean ± SE
Method: as §1, §2, §3

[4] = tested on: COLO 205 cells; assay: Apoptosis (sub-G1) by flow cytometry; format: cell-based, human; settings: 24 h, mean ± SE
Method: as §1, §2, §3

[5] = tested on: HT-29 cells; assay: Cell viability, trypan blue exclusion, 24 h; format: cell-based; settings: HT-29, 24 h, mean ± SE, n=3, read-out: IC50, growth of human cancer cells
Method: as §1
(§4) Determination of Cell Viability. Human cancer cells were treated either with DMSO (0.01%) or the selected compounds (5-100 μM). Cell viability was determined at 24 h based on trypan blue exclusion assay. The viability percentage was calculated based on the percentage of unstained cells. Suspensions of cells were diluted 1:1 with 0.5% trypan blue solution. Stained and unstained cells were counted in a hemocytometer.

[6] = tested on: AGS cells; assay: Cell viability, trypan blue exclusion, 24 h; format: cell-based; settings: mean ± SE, n=3, read-out: IC50, growth of human cancer cells
Method: as §1, §4

[7] = tested on: HL-60 cells; assay: Cell viability, trypan blue exclusion, 24 h; format: cell-based; settings: HL-60, 24 h, mean ± SE, n=3, read-out: IC50, growth of human cancer cells
Method: as §1, §4

[8] = tested on: COLO 205 cells; assay: Cell viability, trypan blue exclusion, 24 h; format: cell-based; settings: COLO 205, 24 h, mean ± SE, n=3, read-out: IC50, growth of human cancer cells
Method: as §1, §4

| SMILES | apoptotic ratio ([1]; HT-29, 5 μM) [%] | apoptotic ratio ([1]; HT-29, 10 μM) [%] | apoptotic ratio ([1]; HT-29, 25 μM) | apoptotic ratio ([1]; HT-29, 50 μM) [%] | apoptotic ratio ([1]; HT-29, 100 μM) | apoptotic ratio ([2]; 5 μM) | apoptotic ratio ([2]; 10 μM) [%] | apoptotic ratio ([2]; 25 μM) | apoptotic ratio ([2]; 50 μM) | apoptotic ratio ([2]; 100 μM) | apoptotic ratio ([3]; HL-60, 5 μM) | apoptotic ratio ([3]; HL-60, 10 μM) [%] | apoptotic ratio ([3]; HL-60, 25 μM) [%] | apoptotic ratio ([3]; HL-60, 50 μM) [%] | apoptotic ratio ([3]; HL-60, 100 μM) | apoptotic ratio ([4]; COLO 205, 5 μM) | apoptotic ratio ([4]; COLO 205, 10 μM) | apoptotic ratio ([4]; COLO 205, 25 μM) | apoptotic ratio ([4]; COLO 205, 50 μM) | apoptotic ratio ([4]; COLO 205, 100 μM) [%] | other results |
| --- | --- | --- | --- | --- | --- | --- | --- | --- | --- | --- | --- | --- | --- | --- | --- | --- | --- | --- | --- | --- | --- |
| C=C1C(=O)OC2CC(C)=C(C(C)CCCOC(C)=O)C(O)C12 (stereo not drawn) [Compound 6, 1-O-acetylbritannilactone] | 5.36 ± 1.80 | 6.81 ± 2.14 | 11.68 ± 3.02% | 9.26 ± 1.80 | 14.87 ± .90% | 15.37 ± 6.22% | 17.28 ± 2.29 | 14.66 ± 1.38% | 14.84 ± .58% | 18.85 ± .68% | 4.05 ± 0.31% | 7.26 ± 2.15 | 4.37 ± 0.57 | 5.69 ± 0.60 | 22.19 ± 4.14% | 13.44 ± .25% | 11.32 ± .421% | 16.48 ± 3.75% | 16.59 ± 0.71% | 35.79 ± 1.36 | IC50 [5]: 96 ± 12.5 µM; IC50 [6]: > 100 µM; IC50 [7]: > 100 µM; IC50 [8]: > 100 µM |
| C=C1C(=O)OC2CC(C)=C(C(C)CCCO)C(OC(=O)C(C)CC)C12 (stereo not drawn) [Compound 1, 6β-O-(2-methylbutyryl)-britannilactone] | 4.24 ± 0.40 | 3.68 ± 0.47 | 3.93 ± 0.16% | 5.16 ± 0.93 | 6.40 ± 0.28% | 10.89 ± 1.69% | 11.38 ± 1.12 | 17.76 ± 0.76% | 28.48 ± 1.20% | 27.10 ± 0.54% | 6.41 ± 0.79% | 5.36 ± 0.61 | 10.53 ± 3.34 | 28.60 ± 2.67 | 27.05 ± 0.54% | 5.33 ± 0.78% | 5.86 ± 0.32% | 15.20 ± 1.02% | 27.21 ± 5.51% | 36.24 ± 0.76 | IC50 [5]: 48.1 ± 2.26 µM; IC50 [6]: 31.3 ± 1.8 µM; IC50 [7]: 47.1 ± 1.55 µM; IC50 [8]: 58.7 ± 1.32 µM |
| C=C1C(=O)OC2CC(C)=C(C(C)CCCOC(C)=O)C(OC(C)=O)C12 (stereo not drawn) [Compound 7, 1,6-O,O-diacetylbritannilactone] | 11.19 ± 3.98 | 11.15 ± 2.84 | 11.50 ± .92% | 13.08 ± 0.63 | 20.88 ± .09% | 7.49 ± .88% | 5.79 ± 0.64 | 11.29 ± 2.16% | 10.79 ± 2.79% | 8.12 ± .26% | 6.14 ± .20% | 8.67 ± 2.06 | 21.13 ± 0.37 | 27.02 ± 2.69 | 22.24 ± 1.06% | 6.94 ± .33% | 8.69 ± 1.65% | 26.95 ± 0.30% | 15.44 ± .08% | 17.82 ± 2.26 | IC50 [5]: 76.6 ± 5.5 µM; IC50 [6]: 66.4 ± 6.29 µM; IC50 [7]: 35.3 ± 0.44 µM; IC50 [8]: 56.7 ± 3.66 µM |
| C=C1C(=O)O[C@@H]2CC(C)=C([C@@H](C)CCCO)[C@H](O)[C@H]12 [Compound 5, britannilactone] | 5.75 ± 1.77 | 6.16 ± 1.23 | 6.49 ± 1.07% | 6.59 ± 0.54 | 7.55 ± .08% | 7.93 ± 1.71% | 10.37 ± 0.98 | 10.16 ± .28% | 8.97 ± 0.66% | 10.37 ± 0.66% | 7.22 ± 1.54% | 5.64 ± 2.00 | 5.24 ± 0.67 | 8.01 ± 1.34 | 12.83 ± .06% | 11.90 ± 3.61% | 12.28 ± 5.24% | 12.79 ± 1.84% | 15.54 ± 2.14% | 28.31 ± 1.89 | IC50 ([5]; Homo sapiens): > 100 µM; IC50 ([6]; Homo sapiens): > 100 µM; IC50 ([7]; Homo sapiens): > 100 µM; IC50 ([8]; Homo sapiens): > 100 µM |
| CC(=O)OCCC[C@H](C)C1=C[C@@H]2[C@H](C)C(=O)O[C@@H]2C[C@@]1(C)O [Compound 2, neobritannilactone A] | 3.94 ± 1.05 | 4.24 ± 0.24 | 5.17 ± 1.70% | 4.09 ± 0.77 | 7.73 ± 3.22% | 9.23 ± 0.22% | 9.83 ± 2.27 | 10.57 ± 2.11% | 9.41 ± 2.83% | 9.81 ± 2.30% | 6.68 ± 1.51% | 6.31 ± 0.98 | 6.19 ± 0.01 | 6.63 ± 2.21 | 16.31 ± 1.63% | 4.08 ± 0.21% | 6.51 ± 2.28% | 4.28 ± .93% | 5.44 ± 0.47% | 25.50 ± 3.46 | IC50 [5]: > 100 µM; IC50 [6]: > 100 µM; IC50 [7]: 85.8 ± 4.97 µM; IC50 [8]: 97.9 ± 1.16 µM |
